# Measurements taken from patent US10405547B2, “Substituted cyclic amides as herbicides” (FMC Corporation, priority 2015, dated 2019).
# Columns and labels:
# Type in all cases: in vivo
# [1] = system: barnyardgrass (Echinochloa crus-galli); assay: Test A preemergence, barnyardgrass; details: 0 to 100 scale (0 no effect, 100 complete control)
# In short: (§1)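 Greenhouse test: compounds in solvent with surfactant sprayed onto loam–sand soil after planting (preemergence) or onto plants 2-10 cm at the one- to two-leaf stage (postemergence). Injury visually rated versus untreated controls after about 10 days on a 0-100 scale (100 = complete control).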
# [2] = system: kochia (Kochia scoparia); assay: Test A preemergence, kochia; details: 0 to 100 scale (0 no effect, 100 complete control)
# In short: as §1
# [3] = system: ragweed (common ragweed, Ambrosia elatior); assay: Test A preemergence, ragweed; details: 0 to 100 scale (0 no effect, 100 complete control)
# In short: as §1
# [4] = system: ryegrass, Italian (Lolium multiflorum); assay: Test A preemergence, Italian ryegrass; details: 0 to 100 scale (0 no effect, 100 complete control)
# In short: as §1
# [5] = system: foxtail, giant (Setaria faberii); assay: Test A preemergence, giant foxtail; details: 0 to 100 scale (0 no effect, 100 complete control)
# In short: as §1
# [6] = system: pigweed (Amaranthus retroflexus); assay: Test A preemergence, pigweed; details: 0 to 100 scale (0 no effect, 100 complete control)
# In short: as §1
# [7] = system: barnyardgrass (Echinochloa crus-galli); assay: Test A postemergence, barnyardgrass; details: visual injury, 0 to 100 scale (0 no effect, 100 complete control), approximately 10 days
# In short: as §1
# [8] = system: kochia (Kochia scoparia); assay: Test A postemergence, kochia; details: visual injury, 0 to 100 scale (0 no effect, 100 complete control), approximately 10 days
# In short: as §1
# [9] = system: ragweed (common ragweed, Ambrosia elatior); assay: Test A postemergence, ragweed; details: visual injury, 0 to 100 scale (0 no effect, 100 complete control), approximately 10 days
# In short: as §1
# [10] = system: ryegrass, Italian (Lolium multiflorum); assay: Test A postemergence, Italian ryegrass; details: visual injury, 0 to 100 scale (0 no effect, 100 complete control), approximately 10 days
# In short: as §1
# [11] = system: foxtail, giant (Setaria faberii); assay: Test A postemergence, giant foxtail; details: visual injury, 0 to 100 scale (0 no effect, 100 complete control), approximately 10 days
# In short: as §1
# [12] = system: pigweed (Amaranthus retroflexus); assay: Test A postemergence, pigweed; details: visual injury, 0 to 100 scale (0 no effect, 100 complete control), approximately 10 days
# In short: as §1
# [13] = system: blackgrass (Alopecurus myosuroides); assay: Test A postemergence, blackgrass; details: visual injury, 0 to 100 scale (0 no effect, 100 complete control), approximately 10 days
# In short: as §1
# [14] = system: galium (catchweed bedstraw, Galium aparine); assay: Test A postemergence, galium; details: visual injury, 0 to 100 scale (0 no effect, 100 complete control), approximately 10 days
# In short: as §1
# [15] = system: wheat (Triticum aestivum); assay: Test A postemergence, wheat; details: visual injury, 0 to 100 scale (0 no effect, 100 complete control), approximately 10 days
# In short: as §1
# [16] = system: corn (Zea mays); assay: Test A postemergence, corn; details: visual injury, 0 to 100 scale (0 no effect, 100 complete control), approximately 10 days
# In short: as §1
# [17] = system: rice (Oryza sativa); assay: Test B flooded paddy test, rice; details: 250 g ai/ha, applied to paddy water, visual rating after 13 to 15 days, scale 0 (no effect) to 100 (complete control)
# In short: (§2)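 Compound was added to standing water 3 cm above soil, flood maintained, and plants held in a greenhouse before visual scoring against controls at 13 to 15 days.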
# [18] = system: sedge, umbrella (small-flower umbrella sedge, Cyperus difformis); assay: Test B flooded paddy test, umbrella sedge; details: 250 g ai/ha, applied to paddy water, visual rating after 13 to 15 days, scale 0 (no effect) to 100 (complete control)
# In short: as §2
# [19] = system: ducksalad (Heteranthera limosa); assay: Test B flooded paddy test, ducksalad; details: 250 g ai/ha, applied to paddy water, visual rating after 13 to 15 days, scale 0 (no effect) to 100 (complete control)
# In short: as §2
# [20] = system: barnyardgrass (Echinochloa crus-galli); assay: Test B flooded paddy test, barnyardgrass; details: 250 g ai/ha, applied to paddy water, visual rating after 13 to 15 days, scale 0 (no effect) to 100 (complete control)
# In short: as §2
SMILES,"Plant response rating, Barnyardgrass ([1]; 125 g ai/ha)","Plant response rating, Barnyardgrass ([1]; 500 g ai/ha)","Plant response rating, Ragweed ([3]; 125 g ai/ha)","Plant response rating, Ragweed ([3]; 500 g ai/ha)","Plant response rating, Ryegrass, Italian ([4]; 125 g ai/ha)","Plant response rating, Ryegrass, Italian ([4]; 500 g ai/ha)","Plant response rating, Foxtail, Giant ([5]; 125 g ai/ha)","Plant response rating, Foxtail, Giant ([5]; 500 g ai/ha)","Plant response rating, Pigweed ([6]; 125 g ai/ha)","Plant response rating, Pigweed ([6]; 500 g ai/ha)","Plant response rating, Barnyardgrass ([7]; 125 g ai/ha)","Plant response rating, Barnyardgrass ([7]; 500 g ai/ha)","Plant response rating, Kochia ([8]; 125 g ai/ha)","Plant response rating, Kochia ([8]; 500 g ai/ha)","Plant response rating, Ragweed ([9]; 125 g ai/ha)","Plant response rating, Ragweed ([9]; 500 g ai/ha)","Plant response rating, Ryegrass, Italian ([10]; 125 g ai/ha)","Plant response rating, Ryegrass, Italian ([10]; 500 g ai/ha)","Plant response rating, Foxtail, Giant ([11]; 125 g ai/ha)","Plant response rating, Foxtail, Giant ([11]; 500 g ai/ha)",further results
O=C1NCC(c2ccccc2Cn2ccc(C(F)(F)F)n2)C1C(=O)Nc1cccc(F)c1F (stereo not shown) [Compound 57],40,90,0,0,0,0,60,90,0,0,0,60,0,20,0,30,0,0,40,70,"Plant response rating, Kochia ([2]; 500 g ai/ha): 0; Plant response rating, Pigweed ([12]; 125 g ai/ha): 0; Plant response rating, Pigweed ([12]; 500 g ai/ha): 20; Plant response rating, Blackgrass ([13]; 125 g ai/ha): 0; Plant response rating, Blackgrass ([13]; 500 g ai/ha): 30; Plant response rating, Galium ([14]; 125 g ai/ha): 0; Plant response rating, Galium ([14]; 500 g ai/ha): 20; Plant response rating, Wheat ([15]; 125 g ai/ha): 0; Plant response rating, Wheat ([15]; 500 g ai/ha): 0; Plant response rating, Corn ([16]; 125 g ai/ha): 30; Plant response rating, Corn ([16]; 500 g ai/ha): 30; Plant response rating, Rice (Flood) [17]: 0; Plant response rating, Sedge, Umbrella (Flood) [18]: 0; Plant response rating, Ducksalad (Flood) [19]: 0; Plant response rating, Barnyardgrass (Flood) [20]: 0"
O=C1NCC(c2ccccc2Cn2ccc(C(F)(F)F)n2)C1C(=O)Nc1ccc(F)c(F)c1F (stereo not shown) [Compound 58],30,90,0,0,0,20,60,90,0,0,0,60,0,20,0,0,0,0,30,60,"Plant response rating, Kochia ([2]; 125 g ai/ha): 0; Plant response rating, Pigweed ([12]; 125 g ai/ha): 0; Plant response rating, Pigweed ([12]; 500 g ai/ha): 0; Plant response rating, Blackgrass ([13]; 125 g ai/ha): 0; Plant response rating, Blackgrass ([13]; 500 g ai/ha): 0; Plant response rating, Galium ([14]; 125 g ai/ha): 0; Plant response rating, Galium ([14]; 500 g ai/ha): 20; Plant response rating, Wheat ([15]; 125 g ai/ha): 0; Plant response rating, Wheat ([15]; 500 g ai/ha): 0; Plant response rating, Corn ([16]; 125 g ai/ha): 0; Plant response rating, Corn ([16]; 500 g ai/ha): 0; Plant response rating, Rice (Flood) [17]: 0; Plant response rating, Sedge, Umbrella (Flood) [18]: 0; Plant response rating, Ducksalad (Flood) [19]: 0; Plant response rating, Barnyardgrass (Flood) [20]: 0"
